Reference: patent publication US10150737B2, “Compounds for controlling arthropods” (priority 2013, dated 2018)

Key:
[1] = logP determination by HPLC on a reversed-phase column (C18); assay type: physicochemical; conditions: for log P: HPLC-MS; for logP^a): HPLC-MS method a); for logP: HPLC, C18 reversed phase, acetonitrile/water with formic acid, EEC Directive 79/831 Annex V.A8
Myzus persicae = Myzus persicae - spray test; assay type: in vivo; conditions: Chinese cabbage leaf discs, after 6 days
Procedure: Solvent: 78 parts by weight of acetone and 1.5 parts by weight of dimethylformamide
Emulsifier: alkylaryl polyglycol ether
To produce an appropriate active ingredient formulation, 1 part by weight of active ingredient is dissolved using the specified parts by weight of solvent and made up with water containing an emulsifier concentration of 1000 ppm until the desired concentration is attained. To produce further test concentrations, the preparation is diluted with emulsifier-containing water.
Discs of Chinese cabbage leaves (Brassica pekinensis) infested by all stages of the green peach aphid (Myzus persicae) are sprayed with an active ingredient formulation of the desired concentration.
After 6 days, efficacy in % is determined. 100% means that all the aphids have been killed; 0% means that none of the aphids have been killed.

Phaedon cochleariae = Phaedon cochleariae - spray test; assay type: in vivo; conditions: larvae on Chinese cabbage leaf discs, after 7 days
Procedure, shortened: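 Chinese cabbage leaf discs sprayed with compound formulated in acetone/DMF and water containing 1000 ppm emulsifier; once dry, infested with mustard beetle larvae. Efficacy (% larvae killed) scored after 7 days.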

Tetranychus urticae = Tetranychus urticae - spray test, OP-resistant; assay type: in vivo; conditions: bean leaf discs, after 6 days
Procedure, shortened: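 Compound dissolved in acetone/DMF, diluted with water containing 1000 ppm alkylaryl polyglycol ether emulsifier to test concentrations. Bean leaf discs infested with all stages of spider mites were sprayed; % kill determined after 6 days (100% = all mites dead, 0% = none).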

Spodoptera frugiperda = Spodoptera frugiperda - spray test; assay type: in vivo; conditions: caterpillars on maize leaf discs, after 7 days
Procedure, shortened: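 Maize leaf discs sprayed with compound formulated in acetone/DMF and diluted in water containing 1000 ppm alkylaryl polyglycol ether emulsifier, then infested with armyworm caterpillars after drying. Efficacy scored after 7 days as % caterpillars killed (100% all, 0% none).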

Ctenocephalides felis [2] = assay: Ctenocephalides felis - in vitro contact tests with adult cat fleas; assay type: in vivo; conditions: application rate 5 μg/cm2 (=500 g/ha); after 48 h; fleas dead or moribund
Procedure: For the coating of the test tubes, 9 mg of active ingredient are first dissolved in 1 ml of acetone p.a. and then diluted to the desired concentration with acetone p.a. 250 μl of the solution are distributed homogeneously on the inner walls and base of a 25 ml test tube by turning and rocking on an orbital shaker (rocking rotation at 30 rpm for 2 h). With 900 ppm active ingredient solution and internal surface area 44.7 cm^2, given homogeneous distribution, an area-based dose of 5 μg/cm^2 is achieved.
After the solvent has evaporated off, the tubes are populated with 5-10 adult cat fleas (Ctenocephalides felis), sealed with a perforated plastic lid and incubated in a horizontal position at room temperature and ambient humidity. After 48 h, efficacy is determined. To this end, the test tubes are stood upright and the fleas are knocked to the base of the tube. Fleas which remain motionless at the base or move in an uncoordinated manner are considered to be dead or moribund.
100% efficacy means that all the fleas were dead or moribund. 0% efficacy means that no fleas were harmed.

Ctenocephalides felis [3] = assay: Ctenocephalides felis - oral test; assay type: in vivo; conditions: application rate 100 ppm in citrated cattle blood; after 2 days
Procedure, shortened: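 Compound in DMSO diluted into citrated cattle blood, fed through a parafilm membrane to about 20 unfed adult cat fleas. Kill in % scored after 2 days (100% = all dead).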

Musca domestica = Musca domestica test; assay type: in vivo; conditions: application rate 100 ppm; adult houseflies; after 2 days
Procedure: Solvent: dimethyl sulphoxide
To produce an appropriate active ingredient formulation, 10 mg of active ingredient are mixed with 0.5 ml of dimethyl sulphoxide, and the concentrate is diluted with water to the desired concentration.
Vessels containing a sponge treated with sugar solution and the active ingredient formulation of the desired concentration are populated with 10 adult houseflies (Musca domestica).
After 2 days, the kill in % is determined. 100% means that all of the flies have been killed; 0% means that none of the flies have been killed.

Boophilus microplus = Boophilus microplus - injection test; assay type: in vivo; conditions: application rate 20 μg/animal; injection into engorged adult female ticks; after 7 days
Procedure, shortened: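 Active ingredient in DMSO, 1 μl injected into the abdomen of 5 engorged adult female ticks, then held in a climate-controlled room. Efficacy scored after 7 days from laying of fertile eggs, with non-fertile-looking eggs kept about 42 days for larval hatch; 100% means no fertile eggs.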

Lucilia cuprina = Lucilia cuprina test; assay type: in vivo; conditions: application rate 100 ppm; L1 larvae; after 2 days
Procedure, shortened: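 About 20 L1 larvae placed on minced horsemeat treated with compound, formulated in DMSO and diluted with water to test concentration. Kill in % scored after 2 days (100% = all larvae dead, 0% = none).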

[4] = reversed-phase column (C18), Table I-T3

SMILES	log P [1, 4]	efficacy (Myzus persicae; application rate 100 g/ha) [%]	efficacy (Phaedon cochleariae; application rate 100 g/ha) [%]	efficacy (Tetranychus urticae; application rate 100 g/ha) [%]	efficacy (Spodoptera frugiperda; application rate 100 g/ha) [%]	efficacy (Myzus persicae; application rate 500 g/ha) [%]	efficacy (Phaedon cochleariae; application rate 500 g/ha) [%]	efficacy (Tetranychus urticae; application rate 500 g/ha) [%]	efficacy (Spodoptera frugiperda; application rate 500 g/ha) [%]	efficacy (Ctenocephalides felis [2]) [%]	efficacy (kill) (Ctenocephalides felis [3]) [%]	efficacy (kill) (Musca domestica) [%]	logP^a) ([1]; reversed-phase column (C18))	efficacy (laying of fertile eggs) (Boophilus microplus) [%]	efficacy (kill) (Lucilia cuprina) [%]	logP^a) [1]	logP^a) [1, 4]	logP [1]
CCSc1cc(C(F)(F)F)cc(Cl)c1-n1cc(-c2ccc(Cl)c(C(=O)NC3(C#N)CC3)c2)cn1 [I-T3-170]	3.7	100	100	100	100													
N#CC1(NC(=O)c2cc(-c3cnn(-c4c(F)cc(C(F)(F)F)cc4Cl)c3)ccc2Cl)CC1 [I-T3-187]	3.3					100	100	100	100									
CNc1ncc(-c2cnn(-c3c(Cl)cc(C(F)(C(F)(F)F)C(F)(F)F)cc3Cl)c2)cc1C(=O)NC1CC1 [I-T3-136]	3.5		100		100					100	100	100	3.5	100	100			
O=C(NC1CC1)c1cccc(-c2cnn(-c3ncc(C(F)(F)F)cc3Cl)c2)c1 [I-T3-122]	3.0					100							3.0					
Cc1cc(C(F)(C(F)(F)F)C(F)(F)F)cc(C(F)(F)F)c1-n1cc(-c2ccc(Cl)c(C(=O)NCC(F)(F)F)c2)cn1 [I-T3-84]			100	100	100					100	100	100		100	100	4.7	4.7	
CC[S+]([O-])c1cc(C(F)(F)F)cc(Cl)c1-n1cc(-c2ccc(Cl)c(C(=O)NC3CC3)c2)cn1 (centres unmarked) [I-T3-179]	3.0	100	100	100														
O=C(NC1CC1)c1cc(-c2cnn(-c3c(Cl)cc(C(F)(C(F)(F)F)C(F)(F)F)cc3Cl)c2)cnc1NC1CC1 [I-T3-137]	3.4		100	90	100					100	100	100	3.4	100	80			
Cc1cc(C(F)(C(F)(F)F)C(F)(F)F)cc(C)c1-c1cc(-c2ccc(Cl)c(C(=O)NCC(F)(F)F)c2)on1 [I-T22-3]			100	90	100					100	100	100		100	100			5
N#CC1(NC(=O)c2cc(-c3cc(-c4c(Cl)cc(C(F)(C(F)(F)F)C(F)(F)F)cc4Cl)on3)ccc2Cl)CC1 [I-T23-2]							100	100	100	100	100	100		100	100			4.8
Cc1cc(C(F)(C(F)(F)F)C(F)(F)F)cc(C)c1-n1ccc(-c2ccc(Cl)c(C(=O)NC3CC3)c2)c1 [I-T46-2]			100		100					100	100			100	100			5.0
O=C(NC1CC1)c1cc(-c2cnn(-c3c(F)cc(C(F)(F)F)cc3Cl)c2)ccc1Cl [I-T3-186]	3.6					90	100	100	100									
N#Cc1cc(C(F)(F)F)cc(Cl)c1-n1cc(-c2ccc(Cl)c(C(=O)NC3CC3)c2)cn1 [I-T3-174]	3.1	100	100	100	100													
CCc1cc(C(F)(C(F)(F)F)C(F)(F)F)cc(C)c1-n1cc(-c2cncc(C(=O)NC3CC3)c2)cn1 [I-T3-77]		100					100	100	100		100	100		100	100	3.4	3.4	
O=C(NC1CC1)c1cc(-c2cnn(-c3ccc(C(F)(C(F)(F)F)C(F)(F)F)cc3Cl)c2)ccc1Cl [I-T3-31]							100	100	100	100	100	100		100	100	4.3	4.3	
Cc1cc(C(F)(C(F)(F)F)C(F)(F)F)cc(C)c1-n1cc(-c2cccc(C(=O)NC3CC3)c2F)cn1 [I-T3-9]							100	100	100	100	100			100	100	4.3	4.3	
